Results published in patent US20200061084A1, “USE OF 2AMD AND 2MD TO TREAT FIBROSIS” (WISCONSIN ALUMNI RESEARCH FOUNDATION, priority 2016, published 2020).

Legend:
[1] = Serum calcium levels of rats dosed with CsA and vitamin D analogs (atomic absorption spectroscopy); type: in vivo, Sprague-Dawley male rats
Description: Rats were randomly assigned to groups of 6 each. Each animal received daily injections under 2% isofluorane. […] Vitamin D analogs were dissolved in polyethylene glycol, 0.5% ethanol (PEG). […] All rats were provided with food and water ad-libitum as per standard procedure. Animals were dosed daily for 28 days with the last dose given approximately 24 h prior to harvest (except for 5 animals receiving 1,25(OH)2D3 which were dosed 48 h prior to harvest). Animals were placed under anesthesia, urine and blood (aorta) were collected and kidneys removed; rats were euthanized by pneumothorax puncture. Kidneys were sectioned longitudinally with one half placed into 10% formalin and the other half snap frozen into liquid nitrogen. Blood was allowed to clot for about 1 h followed by spinning and removing of serum. Tissues in formalin were embedded in paraffin and sectioned for further study. Serum, urine and frozen kidney tissues were stored at −80° C.
Serum was analyzed for BUN, creatinine and calcium levels. The BUN and creatinine measurements were performed using IDEXX cartridges measured on a VETTEST Chemistry Analyzer.

[2] = tested on: CsA-induced nephrotoxicity; experiment: CsA-induced nephrotoxicity in rats, 28 days: weight, serum BUN and creatinine, urinary protein/creatinine ratio, H&E and picrosirius red histology; type: in vivo, Sprague-Dawley male rats; conditions: for Dose sufficient to prevent nephrotoxicity and/or fibrosis without dramatically increasing serum calcium levels: Sprague-Dawley rats; for Picrosirius staining (collagens): kidney sections, birefringence quantified; for Picrosirius staining (collagens) / Serum creatinine / BUN / Urinary protein/creatinine ratio: rats; for Picrosirius staining (collagens) / weight / Serum creatinine / BUN / Urinary protein/creatinine ratio: CsA 20 mg/kg/day, analog 5 ng/kg, daily 28 days; for weight: rats at harvest; for BUN: serum; for Urinary protein/creatinine ratio: spot urine at harvest
Description: Rats were randomly assigned to groups of 6 each. Each animal received daily injections under 2% isofluorane. […] Vitamin D analogs were dissolved in polyethylene glycol, 0.5% ethanol (PEG). […] All rats were provided with food and water ad-libitum as per standard procedure. Animals were dosed daily for 28 days with the last dose given approximately 24 h prior to harvest (except for 5 animals receiving 1,25(OH)2D3 which were dosed 48 h prior to harvest). Animals were placed under anesthesia, urine and blood (aorta) were collected and kidneys removed; rats were euthanized by pneumothorax puncture. Kidneys were sectioned longitudinally with one half placed into 10% formalin and the other half snap frozen into liquid nitrogen. Blood was allowed to clot for about 1 h followed by spinning and removing of serum. Tissues in formalin were embedded in paraffin and sectioned for further study. Serum, urine and frozen kidney tissues were stored at -80° C. […] Serum was analyzed for BUN, creatinine and calcium levels. The BUN and creatinine measurements were performed using IDEXX cartridges measured on a […] Chemistry Analyzer. […] Urine testing to determine protein/creatinine ratio was performed using IDEXX cartridges; protein levels were also measured using BCA protein determination. Kidneys fixed in formalin were embedded in paraffin, sectioned and stained with Hematoxilin/eosin and with pricrosirius red, which stains mostly collagens I and III. Stained sections were imaged on an upright brightfield Nikon microscope with polarizer capabilities to assess the birefringence of the picrosirius-stained collagen fibers. Quantization of staining was carried out using Image J from 5 images obtained at random within the central cortical area and excluding blood vessels. For H&E, the eosin staining (pink) prevalent in native tissue was quantified Data was analyzed using Graphpad Prism software with the standard student t-test or One-way Anova operations.

[3] = tested on: unilateral ureteral obstruction (UUO) model; experiment: Unilateral ureteral obstruction (UUO) model, picrosirius staining of collagen in kidney sections; type: in vivo, Male Sprague-Dawley rats
From the text: The unilateral ureteral obstruction (UUO) model is a surgical model representing a rodent equivalent of acute kidney injury. Obstruction results in marked dilatation of the ureter together with reduced renal blood flow and glomerular filtration.
Male Sprague-Dawley rats weighing approximately 200-350 g were acclimated and fed ad libitum a standard diet (Teklad 8604 or 2018, Harlan, Madison Wis.). Briefly, under 2% isoflurane anesthesia, the left kidney and ureter were exposed through a midline or a flank incision. The ureter was ligated using 5-0 or 6-0 braided silk suture material. The ligated ureter and kidney were returned to the abdominal cavity and the incision was closed in two layers with interrupted sutures and VETBOND tissue adhesive or staples. The right or contralateral kidney was used as a control. Sham operated animals were treated as the UUO animals except their ureter was not ligated (not shown).
Animals were given buprenorphine (0.05 mg/kg) prior to returning them to their cages where they were kept on standard water and chow until sacrifice at the designated times. Animals were euthanized under CO2, following a midline incision blood was collected via cardiac puncture and the kidneys were removed. The midsection of each kidney was placed in 10% formalin for paraffin embedding and histological staining. […]

| Molecule | Dose sufficient to prevent nephrotoxicity and/or fibrosis without dramatically increasing serum calcium levels [2] [ng/kg per day] | Decrease of BUN compared to the CsA-treated group ([2]; analog at 5 ng/kg) | Mean UPC lower than the mean UPC for the CsA group ([2]; analog at 5 ng/kg) | Picrosirius staining (collagens) [2] | weight [2] [g] | Serum creatinine [2] [mg/dL] | BUN [2] [mg/dL] | Urinary protein/creatinine ratio [2] | other results |
| --- | --- | --- | --- | --- | --- | --- | --- | --- | --- |
| C=C1/C(=C\C=C2/CCC[C@]3(C)[C@@H]([C@H](C)CCCC(C)(C)O)CC[C@@H]23)C[C@@H](O)C[C@@H]1O [1,25(OH)2 D3, 1,25(OH)2D3] | – | – | – | – | – | – | – | – | Serum calcium level increase with respect to rats with vehicles or CsA+PEG ([1]; CsA + 1,25(OH)2D3 100 ng/kg, 28 days): about 25% |
| C=C1[C@H](O)CC(=C/C=C2\CCCC3(C)C2CCC3[C@@H](C)CCCC(C)(C)O)C[C@H]1O (stereo partly drawn) [2MD, 2-methylene-19-nor-(20S)-1α,25-dihydroxyvitamin D3] | 5 | about 30% | about 74% | 1.7 | 317.3 | 0.33 | 27 | 0.4 | – |
| 2α-methyl-19-nor-(20S)-1α,25-dihydroxyvitamin D3 [2AMD] | 5 | about 30% | about 74% | 1.8 | 333.8 | 0.36 | 28 | 0.2 | Relationship of serum calcium levels with dose ([1]; rat, in vivo): linear relationship with dose; Collagen content ([2]; 2.5 ng/kg): reduction in collagen content; Decrease of BUN compared to the CsA-treated group ([2]; 2AMD at 10 ng/kg): about 30%; Serum creatinine, normal (below 0.6 mg/dL) or not ([2]; 2AMD at 20 ng/kg): normal in most of the treatment groups except for 2AMD at 20 ng/kg; Eosinophilic tissue (eosin in H&E-stained kidney) compared to the CsA treated group ([2]; CsA + 2AMD 2.5 ng/kg): promoted an increase in eosinophilic tissue; Eosinophilic tissue (eosin in H&E-stained kidney) compared to the CsA treated group ([2]; CsA + 2AMD 5 ng/kg): promoted an increase in eosinophilic tissue; Decrease of the CsA-promoted increase in collagen birefringence (picrosirius red) ([2]; CsA + 2AMD 5 ng/kg, 28 days): about 30%; Drop in weight from the rats' original weights ([2]; CsA + 2AMD 5 ng/kg, day of harvest): 5 g; Fibrosis ([2]; all doses of 2AMD (2.5, 5, 10, 20 ng/kg)): effective at reducing fibrosis; Dose optimal in nephroprotection ([2]; various doses of 2AMD tested): 5 ng/kg rat body weight; Decrease in collagen content (picrosirius staining) ([3]; 2AMD 5 ng/kg oral daily for 14 days starting on the day of UUO): 3 fold; Decrease in collagen content (picrosirius staining) ([3]; 2AMD 5 ng/kg oral daily, from 7 days prior to UUO to 7 days after UUO (-7+7)): 3 fold |
| cyclosporine [CsA + PEG] | – | – | – | – | – | – | – | – | Serum Ca ([1]; rats, CsA 20 mg/kg/day, analog 5 ng/kg, daily injection 28 days, blood about 24 h after last dose): 8.7 mg/dL |
